Assays:
[1] = format: in vitro ADME, mouse
Protocol: Incubation: The metabolic stability assay was performed by incubating each test compound in human liver microsomes at 37° C. and a protein concentration of 0.4 mg/mL. The metabolic reaction was initiated by the addition of an NADPH-regenerating system and quenched at various time points over a 60 minute incubation period by the addition of acetonitrile containing diazepam as internal standard. Control samples (containing no NADPH) were included (and quenched at 2, 30 and 60 minutes) to monitor for potential degradation in the absence of cofactor. The human liver microsomes used in this experiment were supplied by XenoTech, lot #1410230. Microsomal incubations were performed at a substrate concentration of 1 μM. Data analysis: Species scaling factors from Ring et al. (2011) JPharmSci, 100:4090-4110 were used to convert the in vitro CLint (μL/min/mg) to an in vivo CLint(mL/min/kg). Hepatic blood clearance and the corresponding hepatic extraction ratio (EH) were calculated using the well stirred model of hepatic extraction in each species, according to the “in vitro T1/2” approach described in Obach (1999) DrugMetab. Dispos. 27:1350-1359. The EH was then used to classify compounds as low(<0.3), intermediate (0.3-0.7), high (0.7-0.95) or very high (>0.95) extraction compounds. Predicted in vivo clearance values have not been corrected for microsomal or plasma protein binding. Species scaling calculations are based on two assumptions: 1) NADPH-dependent oxidative metabolism predominates over other metabolic routes (i.e. direct conjugative metabolism, reduction, hydrolysis, etc.), and; 2) rates of metabolism and enzyme activities in vitro are truly reflective of those that exist in vivo. […] [table]

[2] = test system: interleukin-1α (IL1α)-mediated cytokine production by the lung adenocarcinoma cell line A549; assay: Cellular assay (A549) against IL1α-mediated cytokine production; format: cell-based, human; details: serum starved A549 cells, compound 30 min prior to IL-1α (1 ng/ml) for 24 h, ELISA
Protocol: Cellular Assay (A549 Human Lung Adenocarcinoma Cells) Assessing Effect of ZH3-138, ZH3-126 and PF670462 Against IL1α-Mediated Cytokine Production
The anti-inflammatory potential of selected compounds was examined by establishing the effects on interleukin-1α (IL1α)-mediated cytokine production by the lung adenocarcinoma cell line A549. Serum starved A549 cells were treated with various concentrations of the relevant CK1δ inhibitor (PF670462, ZH3-126 and ZH3-138) 30 min prior to IL-1α (1 ng/ml) for 24 h. Supernatant was collected and concentration of IL-6, IL-8 and GM-CSF was detected by ELISA. Data are presented as mean±SEM across three replicates in FIG. 7 (A: IL-6; B: IL-8 and C: GM-CSF).

Predicted CLblood [1] | Predicted CLint, in vivo [1] | Predicted EH (hepatic extraction ratio) [1] | CLint, in vitro ([1]; mouse, microsomes) | T1/2 ([1]; mouse, microsomes) | Compound | supernatant concentrations of inflammatory biomarkers (IL-6, IL-8, GM-CSF) [2]
6.48 L/h/kg | 66.3 L/h/kg | 0.90 | 428 μL/min/mg protein | 4 min | Nc1nccc(-c2c(-c3ccc(F)cc3)ncn2C2CCCCC2)n1 [PF670462, reference compound] | 
 |  |  |  |  | Nc1nccc(-c2c(-c3ccc(F)cc3)ncn2C2CCC(F)(F)CC2)n1 [ZH3-138, 4-(1-(4,4-Difluorocyclohexyl)-4-(4-fluorophenyl)-1H-imidazol-5-yl)pyrimidin-2-amine] | ability to reduce supernatant concentrations of other inflammatory biomarkers

Source: patent US20220281846A1, “COMPOUNDS AND COMPOSITIONS FOR THE TREATMENT OF RESPIRATORY DISEASES” (THE UNIVERSITY OF MELBOURNE, priority 2018, published 2022)
